Read-outs that look alike come from different tables or passages of the source.
Tests used:
Type in all cases: in vivo
[1] = system: Plutella xylostella (Diamond Back Moth); assay: Plutella xylostella L2 larvae on treated artificial diet; details: 120 h
Procedure: 24-well microtiter plates with artificial diet were treated with aqueous test solutions prepared from 10,000 ppm DMSO stock solutions by pipetting. After drying, the plates were infested with L2 larvae (10 to 15 per well). The samples were assessed for mortality 5 days after infestation.

[2] = system: Diabrotica balteata (Corn Root Worm); assay: Diabrotica balteata L2 larvae on treated artificial diet; details: 120 h, application rate 200 ppm, 5 days after infestation
Procedure: (§1) 24-well microtiter plates with artificial diet were treated with aqueous test solutions prepared from 10,000 ppm DMSO stock solutions by pipetting. After drying, the plates were infested with L2 larvae (6 to 10 per well). The samples were assessed for mortality 5 days after infestation.

[3] = system: Heliothis virescens (Tobacco Budworm); assay: Heliothis virescens eggs on artificial diet; details: 120 h, read-out: egg or larval mortality
Procedure: Heliothis virescens (Tobacco Budworm):
Eggs (0-24 h old) were placed in 24-well microtiter plates on artificial diet and treated with aqueous test solutions prepared from 10,000 ppm DMSO stock solutions by pipetting. The samples were assessed for egg and larval mortality 5 days after infestation.

[4] = system: Myzus persicae (Green Peach Aphid); assay: Myzus persicae sucrose solution feeding test through Parafilm; details: 120 h, test rate 12 ppm, 5 days after infestation
Procedure: Myzus persicae (Green Peach Aphid)
Test compounds from 10,000 ppm DMSO stock solutions were applied by pipette into 24-well microtiter plates and mixed with sucrose solution. The plates were closed with a stretched Parafilm. A plastic stencil with 24 holes was placed onto the plate and infested pea seedlings were placed directly on the Parafilm. The infested plate was closed with a gel blotting paper and another plastic stencil and then turned upside down. The samples were assessed for mortality 5 days after infestation.

[5] = system: Thrips tabaci (Onion Thrips); assay: Thrips tabaci sunflower leaf disc spray test; details: foliar, 144 h, application rate 200 ppm, mixed ages on sunflower leaf discs, 6 days after infestation
Procedure: Thrips tabaci (Onion Thrips):
(§2) Sunflower leaf discs were placed on agar in 24-well microtiter plates and sprayed with aqueous test solutions prepared from 10,000 ppm DMSO stock solutions. After drying the leaf discs were infested with a thrips population of mixed ages. The samples were assessed for mortality 6 days after infestation.

[6] = system: Spodoptera littoralis (Egyptian Cotton Leaf Worm); assay: Spodoptera littoralis cotton leaf disc spray test, L1 larvae; details: foliar, 72 h
Procedure: Spodoptera littoralis (Egyptian Cotton Leaf Worm)
Cotton leaf discs were placed on agar in 24-well microtiter plates and sprayed with aqueous test solutions prepared from 10,000 ppm DMSO stock solutions. After drying the leaf discs were infested with five L1 larvae. The samples were assessed for mortality 3 days after infestation.

[7] = system: Tetranychus urticae (Two-Spotted Spider Mite); assay: Tetranychus urticae bean leaf disc spray test; details: foliar, 192 h, application rate 200 ppm, mixed population (mobile stages) on bean leaf discs, 8 days after infestation
Procedure: Tetranychus urticae (Two-Spotted Spider Mite):
as §2, with “Bean” for “Sunflower”, “discs” for “discs were placed”, “were” for “and”, “mite” for “thrips”, “on mixed population (mobile stages) 8” for “6”

[8] = system: Diabrotica balteata, (Corn Root Worm); assay: Diabrotica balteata L2 larvae on sprayed maize sprouts; details: 96 h, application rate 200 ppm, 4 days after infestation
Procedure: as §1, with “Maize sprouts, placed on an agar layer in 24-well” for “24-well”, “plates” for “plates with artificial diet”, “spraying.” for “pipetting.”, “4” for “5”

[9] = application rate 200 ppm, eggs on artificial diet, 5 days after infestation

CC(=O)NCSc1ccc(C2=NOC(c3cc(Cl)cc(Cl)c3)(C(F)(F)F)C2)cc1Br (stereo not shown) [Compound A1, N-[[2-bromo-4-[5-(3,5-dichlorophenyl)-5-(trifluoromethyl)-4H-isoxazol-3-yl]phenyl]sulfanylmethyl]acetamide]
≥ 80%: mortality at 200 ppm [1] | mortality at 200 ppm [2] | mortality at 200 ppm [3] | mortality at 12 ppm [4] | mortality at 200 ppm [5] | mortality at 200 ppm [6] | mortality at 200 ppm [7]

CC(=O)NCSc1ccc(C2=CSC(c3cc(Cl)cc(Cl)c3)(C(F)(F)F)C2)cc1Br (stereo not shown) [Compound C1, N-[[2-bromo-4-[2-(3,5-dichlorophenyl)-2-(trifluoromethyl)-3H-thiophen-4-yl]phenyl]sulfanylmethyl]acetamide]
≥ 80%: mortality at 200 ppm ([1]; application rate 200 ppm, L2 larvae on artificial diet, 5 days after infestation, read-out: mortality) | mortality at 200 ppm [3, 9] | mortality at 200 ppm ([6]; application rate 200 ppm, L1 larvae on cotton leaf discs, 3 days after infestation, read-out: mortality) | mortality at 200 ppm [8]

CC1(C(=O)NCSc2ccc(C3=NOC(c4cc(Cl)cc(Cl)c4)(C(F)(F)F)C3)cc2Br)CC1 (stereo not shown) [Compound A4, N-[[2-bromo-4-[5-(3,5-dichlorophenyl)-5-(trifluoromethyl)-4H-isoxazol-3-yl]phenyl]sulfanylmethyl]-1-methyl-cyclopropanecarboxamide]
≥ 80%: mortality at 200 ppm [3]

O=C(NCSc1ccc(C2=NOC(c3cc(Cl)cc(Cl)c3)(C(F)(F)F)C2)cc1Br)C1CC1 (stereo not shown) [Compound A3, N-[[2-bromo-4-[5-(3,5-dichlorophenyl)-5-(trifluoromethyl)-4H-isoxazol-3-yl]phenyl]sulfanylmethyl]cyclopropanecarboxamide]
≥ 80%: mortality at 200 ppm [1] | mortality at 200 ppm [2] | mortality at 200 ppm [3] | mortality at 12 ppm [4] | mortality at 200 ppm [5] | mortality at 200 ppm [6] | mortality at 200 ppm [7]

CC(C)C(=O)NCSc1ccc(C2=CSC(c3cc(Cl)cc(Cl)c3)(C(F)(F)F)C2)cc1Br (stereo not shown) [Compound C2, N-[[2-bromo-4-[2-(3,5-dichlorophenyl)-2-(trifluoromethyl)-3H-thiophen-4-yl]phenyl]sulfanylmethyl]-2-methyl-propanamide]
≥ 80%: mortality at 200 ppm [3, 9]

O=C(NCSc1ccc(C2=NOC(c3cc(Cl)cc(Cl)c3)(C(F)(F)F)C2)cc1Br)c1ccccc1 (stereo not shown) [Compound A2, N-[[2-bromo-4-[5-(3,5-dichlorophenyl)-5-(trifluoromethyl)-4H-isoxazol-3-yl]phenyl]sulfanylmethyl]benzamide]
≥ 80%: mortality at 200 ppm [1] | mortality at 200 ppm [3]

— patent publication US9675073B2, “Insecticidal compounds based on N-arylsulfanylmethylcarboxamidearylthiosulfonamides derivatives” (Syngenta Participations AG, priority 2012, dated 2017)
